Results reported in PubChem BioAssay AID224 (DTP/NCI, 2004).
Where “and” joins values, the source holds several entries; their conditions need not be identical. Equal entries are not always repeated. Inconclusive results and toxic doses are left out.

Tested on: P335 leukemia ip, BDF1 mice, survival T/C %
Assay: NCI In Vivo Anticancer Drug Screen. Data for tumor model P335 Leukemia (intraperitoneal) in B6D2F1 (BDF1) mice
Details: endpoint: mean survival time, higher = longer survival
Experimental: The antitumor activity of compounds was measured in mice bearing transplantable tumors. Survival or tumor size were measured and the results are expressed as the measurement made in the treated group (T) divided by the measurement made in the vehicle treated control group (C). The tumor model used in this assay is P335 Leukemia (intraperitoneal) in B6D2F1 (BDF1) mice

[1] = dose: 3.1 mg/kg/injection, schedule: Q01DX Z (ip), vehicle: carboxymethylcellulose (CMC)
[2] = dose: 0.5 mg/kg/injection, schedule: Q01DX Z (sc), vehicle: steriod suspending solution
[3] = dose: 1.0 mg/kg/injection, schedule: Q01DX Z (sc), vehicle: steriod suspending solution
[4] = dose: 2.0 mg/kg/injection, schedule: Q01DX Z (sc), vehicle: steriod suspending solution
[5] = dose: 4.0 mg/kg/injection, schedule: Q01DX Z (sc), vehicle: steriod suspending solution
[6] = dose: 8.0 mg/kg/injection, schedule: Q01DX Z (sc), vehicle: steriod suspending solution
[7] = dose: 16.0 mg/kg/injection, schedule: Q01DX Z (sc), vehicle: steriod suspending solution
[8] = dose: 31.0 mg/kg/injection, schedule: Q01DX Z (sc), vehicle: steriod suspending solution
[9] = dose: 62.5 mg/kg/injection, schedule: Q01DX Z (sc), vehicle: steriod suspending solution
[10] = dose: 125.0 mg/kg/injection, schedule: Q01DX Z (sc), vehicle: steriod suspending solution
[11] = dose: 250.0 mg/kg/injection, schedule: Q01DX Z (sc), vehicle: steriod suspending solution
[12] = dose: 500.0 mg/kg/injection, schedule: Q01DX Z (sc), vehicle: steriod suspending solution

For O=C(Nc1ccc(C2=NCCCN2)cc1)c1ccc(C(=O)Nc2ccc(C3=NCCCN3)cc2)cc1, the T/C (dose: 0.4 mg/kg/injection, schedule: Q01DX Z (ip), vehicle: water) was 98 % of control, the T/C (dose: 1.6 mg/kg/injection, schedule: Q01DX Z (ip), vehicle: water) was 154 % of control and the T/C (dose: 3.1 mg/kg/injection, schedule: Q01DX Z (ip), vehicle: water) was 207 % of control.
In the case of C[C@H](N)C(=O)N[C@@H]1[C@H]2C(=C(O)C[C@@H](O)[C@@H]2O)C(=O)O[C@@H]1C, the T/C (dose: 23.43 mg/kg/injection, schedule: Q01DX Z (ip), vehicle: saline) is reported as 114 % of control, the T/C (dose: 187.5 mg/kg/injection, schedule: Q01DX Z (ip), vehicle: saline) is reported as 168 % of control and the T/C (dose: 375.0 mg/kg/injection, schedule: Q01DX Z (ip), vehicle: saline) is reported as 151 % of control and 182 % of control. The T/C (dose: 750.0 mg/kg/injection, schedule: Q01DX Z (ip), vehicle: saline) was 191 % of control.
For CCN(CC)c1ccc2cc3ccc(=[N+](CC)CC)cc-3oc2c1, the T/C (dose: 0.31 mg/kg/injection, schedule: Q01DX Z (ip), vehicle: carboxymethylcellulose (CMC)) was 87 % of control, the T/C (dose: 0.62 mg/kg/injection, schedule: Q01DX Z (ip), vehicle: carboxymethylcellulose (CMC)) was 97 % of control and 98 % of control and the T/C (dose: 1.25 mg/kg/injection, schedule: Q01DX Z (ip), vehicle: carboxymethylcellulose (CMC)) was 108 % of control and 123 % of control.
With CSc1ncnc2c1ncn2C1OC(CO)C(O)C1O (configuration not stated) the T/C [1] was 93 % of control, the T/C (dose: 6.25 mg/kg/injection, schedule: Q01DX Z (ip), vehicle: carboxymethylcellulose (CMC)) was 110 % of control and the T/C (dose: 25.0 mg/kg/injection, schedule: Q01DX Z (ip), vehicle: carboxymethylcellulose (CMC)) was 179 % of control. For the same compound, the T/C (dose: 50.0 mg/kg/injection, schedule: Q01DX Z (ip), vehicle: carboxymethylcellulose (CMC)) was 104 % of control.
In the case of CC/C(=C(/CC)c1ccc(O)cc1)c1ccc(O)cc1, the T/C (dose: 15.6 mg/kg/injection, schedule: Q01DX Z (sc), vehicle: steriod suspending solution) is reported as 91 % of control.
For Cn1c(N)nc2nc[nH]c2c1=S, the T/C (dose: 1.6 mg/kg/injection, schedule: Q01DX Z (ip), vehicle: carboxymethylcellulose (CMC)) was 94 % of control, the T/C [1] was 94 % of control and the T/C (dose: 6.3 mg/kg/injection, schedule: Q01DX Z (ip), vehicle: carboxymethylcellulose (CMC)) was 92 % of control.
For Clc1ccc(C(c2ccccc2Cl)C(Cl)Cl)cc1 (configuration not stated), the T/C (dose: 12.5 mg/kg/injection, schedule: Q01DX Z (sc), vehicle: steriod suspending solution) was 96 % of control, the T/C (dose: 25.0 mg/kg/injection, schedule: Q01DX Z (sc), vehicle: steriod suspending solution) was 96 % of control and the T/C (dose: 50.0 mg/kg/injection, schedule: Q01DX Z (sc), vehicle: steriod suspending solution) was 97 % of control. The T/C (dose: 100.0 mg/kg/injection, schedule: Q01DX Z (sc), vehicle: steriod suspending solution) was 92 % of control.
In the case of C[C@]12CCC(=O)C=C1CC[C@@H]1[C@@H]2CC[C@@]2(C)[C@H]1CC[C@]2(C)O, the T/C [2] is reported as 117 % of control, the T/C [3] is reported as 96 % of control and the T/C [4] is reported as 121 % of control. The T/C [5] was 116 % of control, the T/C [6] was 118 % of control and the T/C [7] was 116 % of control. For the same compound, the T/C [8] was 116 % of control, the T/C [9] was 106 % of control and 111 % of control and the T/C [10] was 106 % of control. The T/C [11] was 109 % of control and the T/C [12] was 100 % of control.
In the case of C[C@]12CCC(=O)C=C1CC[C@@H]1[C@@H]2C(=O)C[C@@]2(C)[C@H]1CC[C@]2(O)C(=O)CO, the T/C (dose: 3.9 mg/kg/injection, schedule: Q01DX Z (sc), vehicle: steriod suspending solution) is reported as 111 % of control, the T/C (dose: 31.25 mg/kg/injection, schedule: Q01DX Z (sc), vehicle: steriod suspending solution) is reported as 101 % of control and the T/C [11] is reported as 94 % of control.
CC[C@H](c1ccc(O)cc1)[C@@H](CC)c1ccc(O)cc1 was tested, and the T/C [2] was 103 % of control, the T/C [3] was 108 % of control and the T/C [4] was 115 % of control and 116 % of control. For the same compound, the T/C [5] was 114 % of control, the T/C [6] was 122 % of control and the T/C [7] was 111 % of control. The T/C [8] was 105 % of control, the T/C [9] was 103 % of control and 111 % of control and the T/C [10] was 103 % of control. For the same compound, the T/C [11] was 106 % of control and the T/C [12] was 97 % of control.
